Key:
E. coli ATCC #51813 = test: Antibacterial efficacy test, Relative Light Unit (RLU) counts (ATP); type: cell-based
Description: The NIST nanoparticles are formed by a chemical reduction process that utilizes citrate as reducing and capping agent.
Relative Light Unit (RLU) counts were recorded at 12 hours and 24 hours post treatment. RLU measurements were carried out using a Hygiena SystemSURE Plus V.2 SN067503 RLU meter with Hygenia AquaSnap TOTAL ATP Water Test Cat #U143 Lot #153019. Culturing media was Hardy Diagnostics Buffered Peptone Water Lot #118272. Samples were prepared with the nanoparticle treatments and then diluted with the media to provide the tested concentrations. The test organism (Microbiologics, E. coli, KwikStik, ATCC #51813, Ref #0791 K, Lot #791-1-6) was incubated in fresh Buffered Peptone Water growth media for 24 hours prior to exposure to the nanoparticle treatments.

[1] = Efficacy test comparing Attostat Ag to tobramycin (colony reduction); type: cell-based; details: 4 μg/mL Attostat Ag vs 20 μg/mL tobramycin
Description: Efficacy tests similar to those of Examples 5 and 6 were performed to compare the efficacy of Attostat Ag to tobramycin. […]

Row | Compound | RLU Counts at 12 Hours Post Exposure (E. coli ATCC #51813; 0.25 ppm (mg/L)) [RLU] | RLU Counts at 24 Hours Post Exposure (E. coli ATCC #51813; 0.25 ppm (mg/L)) [RLU] | RLU Counts at 12 Hours Post Exposure (E. coli ATCC #51813; 0.5 ppm (mg/L)) [RLU] | RLU Counts at 24 Hours Post Exposure (E. coli ATCC #51813; 0.5 ppm (mg/L)) [RLU] | RLU Counts at 12 Hours Post Exposure (E. coli ATCC #51813; 1.0 ppm (mg/L)) [RLU] | RLU Counts at 24 Hours Post Exposure (E. coli ATCC #51813; 1.0 ppm (mg/L)) [RLU] | colony reduction, comparison [1]
1 | O=[N+]([O-])[O-].[Ag+] [AgNO3 Silver Nitrate, silver nitrate] | 80 | 25 | 75 | 46 | 84 | 30 | –
2 | NC[C@H]1O[C@H](O[C@H]2[C@H](O)[C@@H](O[C@H]3O[C@H](CO)[C@@H](O)[C@H](N)[C@H]3O)[C@H](N)C[C@@H]2N)[C@H](N)C[C@@H]1O [tobramycin] | – | – | – | – | – | – | equal colony reduction

From US12115250B2, “Use of nanoparticles for treating respiratory infections associated with cystic fibrosis” (EVOQ NANO, INC., priority 2019, dated 2024)
